Test results as given in patent US9714951B2, “Pharmaceutical compositions containing peptides derived from human BPLP protein” (INSTITUT PASTEUR, priority 2004, dated 2017).
“Also recorded” adds a separate entry of the source. Values belong to the compound of their own block, whether it stands above or below them. Ends that are not written are not given here.

Columns and labels:
[1] = molecular target: T1, human NEP (human ecto-endopeptidase activity, LNCaP cell line) (Homo sapiens, UniProt P08473); test: breakdown of substrate (substance P, McaBK2) by LNCaP human cell membranes; format: biochemical; conditions: for effect on substance P hydrolysis by cell surface ectopeptidases: bestatin 25 μM, captopril 10 μM
T1 construct: in the experimental model of static incubation of human LNCaP cell membranes; endogenous in cells; host or cells: LNCaP (human prostate adenocarcinoma) membrane preparation, NEP induced by DHT

spinal and renal NEP = molecular target: T2, spinal and renal NEP (Rattus norvegicus, UniProt P07861); conditions: membrane-bound NEP; read-out: IC50 of inhibition of the breakdown of substance P; cited from earlier work
T2 construct: host or cells: spinal cord and kidney tissue
T2 sequence (P07861 1-750): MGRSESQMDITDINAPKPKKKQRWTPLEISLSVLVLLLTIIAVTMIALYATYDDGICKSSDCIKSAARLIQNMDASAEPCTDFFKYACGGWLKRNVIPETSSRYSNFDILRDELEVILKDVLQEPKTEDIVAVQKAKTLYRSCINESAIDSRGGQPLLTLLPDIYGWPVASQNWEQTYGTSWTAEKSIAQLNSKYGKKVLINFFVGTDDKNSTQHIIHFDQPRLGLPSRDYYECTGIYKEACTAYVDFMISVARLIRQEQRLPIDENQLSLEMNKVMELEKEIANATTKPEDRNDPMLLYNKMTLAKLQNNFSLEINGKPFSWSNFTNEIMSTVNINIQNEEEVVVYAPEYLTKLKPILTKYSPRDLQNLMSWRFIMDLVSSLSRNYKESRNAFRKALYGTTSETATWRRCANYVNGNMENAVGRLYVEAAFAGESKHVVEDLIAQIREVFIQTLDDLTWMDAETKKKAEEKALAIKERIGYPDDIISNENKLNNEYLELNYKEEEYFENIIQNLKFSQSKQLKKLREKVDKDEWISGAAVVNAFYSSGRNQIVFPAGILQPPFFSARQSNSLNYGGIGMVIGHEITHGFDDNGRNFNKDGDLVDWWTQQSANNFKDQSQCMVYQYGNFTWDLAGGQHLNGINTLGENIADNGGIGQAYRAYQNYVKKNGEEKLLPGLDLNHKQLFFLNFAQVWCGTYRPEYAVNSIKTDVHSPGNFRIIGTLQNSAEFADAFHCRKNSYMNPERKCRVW

[2] = molecular target: T3, soluble purified renal NEP (Oryctolagus cuniculus, UniProt P08049); conditions: DGNPA substrate, read-out: IC50 of inhibition of NEP activity; cited from earlier work
T3 construct: host or cells: kidney (purified, soluble)
T3 sequence (P08049 1-750): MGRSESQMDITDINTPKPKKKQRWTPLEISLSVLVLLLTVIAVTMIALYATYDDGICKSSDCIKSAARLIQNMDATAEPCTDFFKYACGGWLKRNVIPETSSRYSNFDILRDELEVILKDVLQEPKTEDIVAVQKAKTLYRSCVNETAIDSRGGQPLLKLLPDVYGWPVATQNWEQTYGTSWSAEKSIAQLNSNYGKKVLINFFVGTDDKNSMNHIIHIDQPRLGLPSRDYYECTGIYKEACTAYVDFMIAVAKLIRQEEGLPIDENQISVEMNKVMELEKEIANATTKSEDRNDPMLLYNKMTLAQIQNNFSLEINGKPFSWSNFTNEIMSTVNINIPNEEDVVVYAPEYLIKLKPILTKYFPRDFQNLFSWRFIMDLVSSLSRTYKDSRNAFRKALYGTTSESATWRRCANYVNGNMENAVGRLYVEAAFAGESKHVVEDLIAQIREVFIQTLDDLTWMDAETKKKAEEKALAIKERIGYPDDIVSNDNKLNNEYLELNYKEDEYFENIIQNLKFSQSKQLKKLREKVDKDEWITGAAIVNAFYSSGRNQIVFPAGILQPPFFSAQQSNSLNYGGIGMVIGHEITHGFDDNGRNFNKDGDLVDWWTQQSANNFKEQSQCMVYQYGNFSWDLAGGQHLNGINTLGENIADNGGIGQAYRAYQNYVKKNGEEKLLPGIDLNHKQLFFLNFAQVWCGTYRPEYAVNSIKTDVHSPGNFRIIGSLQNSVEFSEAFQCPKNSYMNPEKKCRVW

formalin-induced pain [3] = conditions: iv; cited from earlier work
[4] = molecular target: T4, rat NEP ecto-endopeptidase activity (renal tissue) (Rattus norvegicus, UniProt P07861); test: breakdown of substance P by rat renal NEP ecto-endopeptidase activity; format: biochemical
T4 construct: rat NEP ecto-endopeptidase activity (renal tissue); from tissue; host or cells: rat kidney (renal tissue)
T4 sequence (P07861 1-750): T2 sequence (P07861 1-750)
Description: Briefly, for membrane preparations, the cells were homogenised at 4° C. in 10 volumes (vol./wt.) of 50 mM Tris/HCl buffered at pH 7.1. A first centrifugation at 1000×g and 5° C. for 5 min allows to remove the cellular debris and the nuclei in the pellet. A second centrifugation at 100 000×g and 5° C. for 30 min concentrates the membrane fraction in the pellet, which will be superficially washed three times in cold Tris/HCl buffer, resuspended in fresh buffer, aliquoted and stored at −80° C. while waiting to be used as enzyme source.
Hydrolysis of substrates was measured by monitoring the metabolism rate in conditions of initial velocity measurement in the presence and absence of specific inhibitors. These were added to the preincubation medium. The standard reaction mixture consisted of cell membranes in a final volume of 200 μl Tris-HCl 50 mM pH 6.5-7.2. The substrate was added after preincubation for 10 min and the digestion carried out for 20 min at 25° C. in a constantly shaken water bath. The reaction was terminated by cooling to 4° C. and adding HCl (0.3N final concentration). The reaction tubes were then centrifuged (4700×g for 15 min at 4° C.) and the remaining intact substrate and its metabolites measured.
The intact tritiated substrate was eluted with 75-100% methanol-0.1% TFA (4 ml). • RP-HPLC coupled to a spectrophotometer was used to analyse the hydrolysis of Met-enkephalin, (C-18 LUNA column, AIT). […] Their identities and relative quantities (peak height) were checked by monitoring the column outflow at 264 nm (L3000, Merck). • The disappearance of the initial Met-enkephalin substrate was also quantified by radioimmunoassay (RIA). […] The radioactivity of each fraction was determined by liquid scintillation spectrometry.

[5] = molecular target: T5, soluble recombinant human DPP IV (Homo sapiens, UniProt P27487); test: endoproteolysis of substance P by soluble recombinant hDPPIV; format: biochemical; conditions: 25 or 50 μM peptide
T5 construct: (without the N-terminal cytosol and transmembrane segment)

[6] = tested on: human cell surface endopeptidases; test: metabolism of YQRFSR by human cell membranes containing NEP (RP-HPLC); format: in vitro ADME; conditions: 175 μM
Text: FIG. 8 is a RP-HPLC chromatographic analysis of the YQRFSR peptide (SEQ ID NO: 4).
The inventors used the tritiated 3H-YQRFSR peptide (SEQ ID NO: 4) to establish the pharmacokinetic and pharmacodynamic parameters, of this human functional peptidomimetic of rat sialorphin in vivo in adult male rat (biodistribution-bioavailability-clearance) as well as to define its metabolism mechanism and turnover in vivo and in vitro, (FIG. 8).

formalin-induced pain [7] = test: formalin test, behavioral rat model of acute pain; format: in vivo; conditions: for time spent in paw licking, early phase: first 20 min after formalin, vehicle 144±17 s
Text: […]. […] […].

T1 sequence (P08473 whole entry): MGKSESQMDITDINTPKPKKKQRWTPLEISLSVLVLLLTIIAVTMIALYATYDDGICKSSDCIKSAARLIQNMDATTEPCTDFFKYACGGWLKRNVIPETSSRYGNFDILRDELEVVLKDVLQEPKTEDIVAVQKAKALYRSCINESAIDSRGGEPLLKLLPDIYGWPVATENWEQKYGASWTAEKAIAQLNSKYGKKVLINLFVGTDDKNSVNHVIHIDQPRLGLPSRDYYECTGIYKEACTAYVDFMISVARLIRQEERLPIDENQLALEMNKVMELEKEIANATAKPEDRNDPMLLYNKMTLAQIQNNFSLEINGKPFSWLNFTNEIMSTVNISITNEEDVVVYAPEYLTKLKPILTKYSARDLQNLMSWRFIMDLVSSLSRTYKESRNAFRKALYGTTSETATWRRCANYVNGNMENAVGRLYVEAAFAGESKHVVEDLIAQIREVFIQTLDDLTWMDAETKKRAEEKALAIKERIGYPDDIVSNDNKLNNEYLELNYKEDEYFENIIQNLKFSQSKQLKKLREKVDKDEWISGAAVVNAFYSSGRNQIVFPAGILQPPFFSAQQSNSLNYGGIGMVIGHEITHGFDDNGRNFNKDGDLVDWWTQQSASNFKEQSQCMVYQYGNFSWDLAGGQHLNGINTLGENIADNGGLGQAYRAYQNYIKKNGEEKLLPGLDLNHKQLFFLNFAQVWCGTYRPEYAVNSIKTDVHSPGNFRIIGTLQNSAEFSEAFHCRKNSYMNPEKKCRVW
T5 sequence (P27487 29-766 limits assumed): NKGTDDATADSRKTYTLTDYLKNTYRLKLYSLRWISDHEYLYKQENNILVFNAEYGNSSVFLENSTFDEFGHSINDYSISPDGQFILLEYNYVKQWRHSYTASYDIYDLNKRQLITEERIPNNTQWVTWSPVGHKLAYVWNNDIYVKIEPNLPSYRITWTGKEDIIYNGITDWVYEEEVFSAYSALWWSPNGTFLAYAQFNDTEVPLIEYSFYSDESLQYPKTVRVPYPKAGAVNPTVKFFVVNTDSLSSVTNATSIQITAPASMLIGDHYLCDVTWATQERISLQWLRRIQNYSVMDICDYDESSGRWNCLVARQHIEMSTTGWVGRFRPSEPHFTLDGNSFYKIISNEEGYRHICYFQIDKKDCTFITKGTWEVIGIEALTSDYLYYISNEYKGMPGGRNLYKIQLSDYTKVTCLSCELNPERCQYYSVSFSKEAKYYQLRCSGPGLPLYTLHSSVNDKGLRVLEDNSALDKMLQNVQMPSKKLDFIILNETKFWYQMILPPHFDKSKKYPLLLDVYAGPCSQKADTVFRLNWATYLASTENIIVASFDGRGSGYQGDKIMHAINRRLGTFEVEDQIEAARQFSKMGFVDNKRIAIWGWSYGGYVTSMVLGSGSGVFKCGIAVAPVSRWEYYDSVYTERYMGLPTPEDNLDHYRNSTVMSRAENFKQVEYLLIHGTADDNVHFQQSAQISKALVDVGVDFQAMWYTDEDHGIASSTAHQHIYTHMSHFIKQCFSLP

Compound: O=C(O)CNC(=O)C(CS)Cc1ccccc1 (stereo not shown) [thiorphan]
- inhibition at 0.5 µM ([1]; read-out: maximum inhibitory potency on LNCaP membrane activity): 62%

Compound: QHNPR
- IC50 (spinal and renal NEP): 0.4 to 1 µM
- inhibitory potency against membrane-anchored human NEP (LNCaP) relative to rodent NEP (rat, rabbit), fold lower ([1]; human LNCaP vs rodent NEP): about 10 fold
- inhibitory potency towards ectoendopeptidase from human cells [1]: 4 to 40 µM
- IC50 [2]: 0.6 µM
- effective doses in formalin-induced pain model (formalin-induced pain [3]): 0.1 to 0.2 mg/kg
- inhibitory potency towards ectoendopeptidase from rat tissues [4]: 0.4 to 4 µM

Compound: QRFSR [QRFSR]
- effect on breakdown of SP by recombinant hDPPIV [5]: no effect; also recorded: not prevented

Compound: N=C(N)NCCC[C@H](NC(=O)[C@H](CO)NC(=O)[C@H](Cc1ccccc1)NC(=O)[C@H](CCCNC(=N)N)NC(=O)[C@H](CCC(N)=O)NC(=O)[C@@H](N)Cc1ccc(O)cc1)C(=O)O [YQRFSR]
- metabolism by human cell membranes containing NEP ([6]; in vitro): not metabolized
- recovered as intact peptide ([6]; with human cell membranes containing NEP, 94% in absence of membranes): 93%
- time spent in paw licking, early phase (formalin-induced pain [7]; 0.5 mg/kg systemic): 97 ± 14 s
- time spent in paw licking, early phase (formalin-induced pain [7]; 1 mg/kg systemic): 84 ± 13 s
- time spent in paw licking, late phase (formalin-induced pain [7]; 1 mg/kg, 40 to 60 min after formalin, vehicle 63±13 s): 9 ± 3 s
- analgesia in the presence of an opioid receptor antagonist (formalin-induced pain [7]; with nalaxone): totally reversed
- inhibitory potency towards ectoendopeptidase from human cells [1]: 5 to 50 µM
- inhibition of substance P endoproteolysis by human cell membranes ([1]; peptide 175 μM): 70%
- IC50 [4]: 38 µM
- inhibitory potency towards ectoendopeptidase from rat tissues [4]: 5 to 75 µM

Compound: CSCC[C@H](N)CSSCC(Cc1ccccc1)C(=O)N[C@@H](Cc1ccccc1)C(=O)OCc1ccccc1 (stereo partly shown) [RB101]
- effective doses in formalin-induced pain model (formalin-induced pain [3]): 2.5 to 5 mg/kg

Compound: QHNP (listed as Rattus rattus)
- inhibitory potency towards ectoendopeptidase from rat tissues [4]: ≧50 μM

Compound: QRGPR (listed as Homo sapiens)
- effect on substance P endoproteolysis induced by LNCaP human cell membranes ([1]; 20-90 μM): no effect
- inhibitory potency towards ectoendopeptidase from human cells [1]: ≧90 μM

The remaining lines, values ahead:

- effect on substance P hydrolysis by cell surface ectopeptidases [1]: did not inhibit
Compound: C[C@H](CS)C(=O)N1CCC[C@H]1C(=O)O [captopril]

- effect on substance P hydrolysis by cell surface ectopeptidases [1]: did not inhibit
Compound: CC(C)C[C@H](NC(=O)[C@@H](O)[C@H](N)Cc1ccccc1)C(=O)O [bestatin]

- inhibitory potency towards ectoendopeptidase from human cells [1]: ≧90 μM
Compound: QRGPRGP (listed as Homo sapiens)
